Measurements published in patent publication US9475814B2, “Chiral N-acyl-5,6,7(8-substituted)-tetrahydro-[1,2,4]triazolo[4,3-a]pyrazines as selective NK-3 receptor antagonists, pharmaceutical composition, methods for use in NK-3 receptor mediated disorders and chiral synthesis thereof” (Euroscreen S.A., priority 2011, dated 2016).

Key:
human NK-3 receptor [1] = target: T1, human NK-3 receptor (Homo sapiens (Human), UniProt P29371); assay: 3H-SB222200 binding competition assay with human NK-3 receptor; conditions: Table 6; membranes of CHO cells expressing human NK3 receptor, 5 nM 3H-SB222200; read-out: Ki
T1 sequence (P29371 whole entry): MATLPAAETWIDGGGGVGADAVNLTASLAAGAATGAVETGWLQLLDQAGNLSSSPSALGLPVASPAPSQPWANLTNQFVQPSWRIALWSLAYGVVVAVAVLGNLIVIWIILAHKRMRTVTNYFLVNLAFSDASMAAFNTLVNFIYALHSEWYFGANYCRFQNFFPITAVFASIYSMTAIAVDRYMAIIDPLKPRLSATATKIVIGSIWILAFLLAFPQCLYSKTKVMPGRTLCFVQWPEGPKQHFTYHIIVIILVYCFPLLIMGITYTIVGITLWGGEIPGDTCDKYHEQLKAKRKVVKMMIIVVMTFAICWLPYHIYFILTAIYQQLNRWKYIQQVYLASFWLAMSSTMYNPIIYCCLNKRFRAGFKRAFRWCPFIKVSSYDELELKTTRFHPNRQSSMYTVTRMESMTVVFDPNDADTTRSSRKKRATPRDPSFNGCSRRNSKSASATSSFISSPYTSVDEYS
Description: ^3H-SB222200 Binding Competition Assay with Human NK-3 Receptor
The membranes were incubated with 5 nM ^3H-SB222200(ARC) in a HEPES 25 mM/NaCl 0.1M/CaCl2 1 mM/MgCl2 5 Mm/BSA 0.5%/Saponin 10 μg/ml buffer at pH 7.4 and various concentrations of compounds of the invention. The amount of ^3H-SB222200 bound to the receptor was determined after filtration by the quantification of membrane associated radioactivity using the TopCount-NXT reader (Packard).

human NK-3 receptor [2] = target: T1, human NK-3 receptor; assay: Aequorin functional assay with human NK-3 receptor (antagonist testing vs NKA); assay type: cell-based; conditions: inhibition of NKA (3 nM, EC80) response, CHO cells expressing human NK3 receptor and apoaequorin

Row | SMILES | Ki (human NK-3 receptor [1]) | IC50 (human NK-3 receptor [2])
1 | Cc1nc(-c2nnc3n2CCN(C(=O)c2ccc(-c4ccccc4)cc2)[C@@H]3C)cs1 [Compound 2, (R)-[1,1′-biphenyl]-4-yl(8-methyl-3-(2-methylthiazol-4-yl)-5,6-dihydro-[1,2,4]triazolo[4,3-a]pyrazin-7(8H)-yl)methanone] | 26 nM | 28 nM
2 | CCc1nc(-c2nnc3n2CCN(C(=O)c2ccc(-c4cccs4)cc2)[C@@H]3C)cs1 [Compound 5, (R)-(3-(2-ethylthiazol-4-yl)-8-methyl-5,6-dihydro-[1,2,4]triazolo[4,3-a]pyrazin-7(8H)-yl)(4-(thiophen-2-yl)phenyl)methanone] | 5 nM | 3 nM
3 | CCc1nc(-c2nnc3n2CCN(C(=O)c2ccc(-c4ccccc4)cc2)[C@@H]3C)cs1 [Compound 6, (R)-[1,1′-biphenyl]-4-yl(3-(2-ethylthiazol-4-yl)-8-methyl-5,6-dihydro-[1,2,4]triazolo[4,3-a]pyrazin-7(8H)-yl)methanone] | 11 nM | 10 nM
4 | C=Cc1nc(-c2nnc3n2CCN(C(=O)c2ccc(-c4cccs4)cc2)[C@@H]3C)cs1 [Compound 7, (R)-(8-methyl-3-(2-vinylthiazol-4-yl)-5,6-dihydro-[1,2,4]triazolo[4,3-a]pyrazin-7(8H)-yl)(4-(thiophen-2-yl)phenyl)methanone] | 4 nM | 3 nM
5 | C=Cc1nc(-c2nnc3n2CCN(C(=O)c2ccc(-c4ccccc4)cc2)[C@@H]3C)cs1 [Compound 8, (R)-[1,1′-biphenyl]-4-yl(8-methyl-3-(2-vinylthiazol-4-yl)-5,6-dihydro-[1,2,4]triazolo[4,3-a]pyrazin-7(8H)-yl)methanone] | 7 nM | 7 nM
6 | C=Cc1nc(-c2nnc3n2CCN(C(=O)c2ccc(-c4cccs4)cc2)C3)cs1 [Compound 9, (4-(thiophen-2-yl)phenyl)(3-(2-vinylthiazol-4-yl)-5,6-dihydro-[1,2,4]triazolo[4,3-a]pyrazin-7(8H)-yl)methanone] | 19 nM | 18 nM
7 | C=Cc1nc(-c2nnc3n2CCN(C(=O)c2ccc(-c4ccccc4)cc2)C3)cs1 [Compound 10, [1,1′-biphenyl]-4-yl(3-(2-vinylthiazol-4-yl)-5,6-dihydro-[1,2,4]triazolo[4,3-a]pyrazin-7(8H)-yl)methanone] | 36 nM | 20 nM
8 | Cc1nc(-c2nnc3n2CCN(C(=O)c2ccc(-c4ccccc4)cc2)[C@@H]3C)co1 [Compound 12, (R)-[1,1′-biphenyl]-4-yl(8-methyl-3-(2-methyloxazol-4-yl)-5,6-dihydro-[1,2,4]triazolo[4,3-a]pyrazin-7(8H)-yl)methanone] | 70 nM | 58 nM
9 | CC(C)c1nc(-c2nnc3n2CCN(C(=O)c2ccc(-c4cccs4)cc2)[C@@H]3C)co1 [Compound 13, (R)-(3-(2-isopropyloxazol-4-yl)-8-methyl-5,6-dihydro-[1,2,4]triazolo[4,3-a]pyrazin-7(8H)-yl)(4-(thiophen-2-yl)phenyl)methanone] | 3 nM | 2 nM
10 | CC(C)c1nc(-c2nnc3n2CCN(C(=O)c2ccc(-c4cccs4)cc2)C3)co1 [Compound 14, (3-(2-isopropyloxazol-4-yl)-5,6-dihydro-[1,2,4]triazolo[4,3-a]pyrazin-7(8H)-yl)(4-(thiophen-2-yl)phenyl)methanone] | 42 nM | 47 nM
11 | C[C@@H]1c2nnc(-c3coc(C4CC4)n3)n2CCN1C(=O)c1ccc(-c2cccs2)cc1 [Compound 15, (R)-(3-(2-cyclopropyloxazol-4-yl)-8-methyl-5,6-dihydro-[1,2,4]triazolo[4,3-a]pyrazin-7(8H)-yl)(4-(thiophen-2-yl)phenyl)methanone] | 11 nM | 9 nM
12 | Cc1coc(-c2nnc3n2CCN(C(=O)c2ccc(-c4cccs4)cc2)[C@@H]3C)n1 [Compound 26, (R)-(8-methyl-3-(4-methyloxazol-2-yl)-5,6-dihydro-[1,2,4]triazolo[4,3-a]pyrazin-7(8H)-yl)(4-(thiophen-2-yl)phenyl)methanone] |  | 12 nM
